Calls of active or inactive are those of the source.
Key:
[1] = system: BJ; assay: cells; type: functional, cell-based; conditions: Homo sapiens
[2] = target: T1, DNA repair and recombination protein RAD54-like (Homo sapiens, UniProt Q92698); assay: RAD54 Holliday junction migration blockers – biochemical, fluorescence, cherry-picked samples, dose series, confirmation (AID 651657); type: functional
T1 sequence (Q92698 whole entry): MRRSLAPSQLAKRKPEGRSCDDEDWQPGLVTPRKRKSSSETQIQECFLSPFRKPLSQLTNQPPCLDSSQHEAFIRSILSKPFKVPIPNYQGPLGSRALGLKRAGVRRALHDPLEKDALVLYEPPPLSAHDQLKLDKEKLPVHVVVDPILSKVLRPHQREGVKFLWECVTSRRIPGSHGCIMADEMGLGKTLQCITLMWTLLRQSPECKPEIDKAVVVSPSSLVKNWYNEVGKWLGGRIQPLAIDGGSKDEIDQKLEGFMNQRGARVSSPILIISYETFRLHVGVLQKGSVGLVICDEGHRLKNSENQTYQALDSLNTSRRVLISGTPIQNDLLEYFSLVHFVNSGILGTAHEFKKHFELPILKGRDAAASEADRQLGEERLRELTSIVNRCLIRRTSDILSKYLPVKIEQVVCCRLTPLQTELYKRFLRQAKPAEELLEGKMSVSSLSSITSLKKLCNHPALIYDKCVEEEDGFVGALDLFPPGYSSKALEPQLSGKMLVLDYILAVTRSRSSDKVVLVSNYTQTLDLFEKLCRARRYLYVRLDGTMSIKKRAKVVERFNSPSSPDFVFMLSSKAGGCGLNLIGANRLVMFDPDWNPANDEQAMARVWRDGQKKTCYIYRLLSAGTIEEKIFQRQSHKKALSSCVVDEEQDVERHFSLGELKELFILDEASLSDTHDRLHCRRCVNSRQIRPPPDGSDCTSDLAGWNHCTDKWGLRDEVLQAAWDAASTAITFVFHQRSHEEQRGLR

[3] = reduction of Shn3 3'UTR-driven luciferase in osteoblasts – cell-based, Clone20 osteoblasts, firefly luciferase, cherry-picked, dose response (AID 624132); type: functional;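 further: firefly luciferase luminescence from reporter carrying the Shn3 3'UTR in osteoblasts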
[4] = target: DNA dC->dU-editing enzyme APOBEC-3G (Homo sapiens, UniProt Q9HC16); type: functional;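 further: Dose-response counterscreen measuring inhibition of APOBEC3G DNA deaminase activity, run while confirming APOBEC3A inhibitors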
DNA dC->dU-editing enzyme APOBEC-3G, sequence (Q9HC16 whole entry): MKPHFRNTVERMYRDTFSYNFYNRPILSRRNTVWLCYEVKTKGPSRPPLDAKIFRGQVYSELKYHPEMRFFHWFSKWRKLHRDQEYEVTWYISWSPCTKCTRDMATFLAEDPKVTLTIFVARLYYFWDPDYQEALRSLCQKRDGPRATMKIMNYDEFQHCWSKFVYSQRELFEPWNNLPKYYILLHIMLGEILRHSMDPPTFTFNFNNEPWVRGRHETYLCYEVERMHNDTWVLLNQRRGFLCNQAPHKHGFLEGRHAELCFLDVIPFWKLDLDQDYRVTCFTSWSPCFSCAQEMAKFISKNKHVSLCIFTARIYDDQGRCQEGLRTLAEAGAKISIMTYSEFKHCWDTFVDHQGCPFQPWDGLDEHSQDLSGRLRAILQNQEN

[5] = system: INS1; assay: INS-1E survival protection against cytokine death – cell-based, luminescence, retest, dose response (AID 449756); type: functional; conditions: Rattus norvegicus;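 further: cell death triggered by IL-1 beta plus TNF-alpha plus IFN-gamma mixture; protective hits raise ATP signal compared with cytokine alone wells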
[6] = system: BJ; assay: BJ-TERT-LT-ST fibroblast viability loss – cell-based, RAS-independent, luminescence, dose response (AID 1935); type: functional; conditions: Homo sapiens;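 further: BJ fibroblasts immortalized with TERT plus LT and ST oncogenes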
[7] = target: DNA dC->dU-editing enzyme APOBEC-3A (Homo sapiens, UniProt P31941); assay: Dose Response confirmation of small molecule APOBEC3A DNA Deaminase Inhibitors via a fluorescence-based single-stranded DNA deaminase assay. [Related pubchem assays (depositor defined):AID493011, AID493024]; type: functional
DNA dC->dU-editing enzyme APOBEC-3A, sequence (P31941 whole entry): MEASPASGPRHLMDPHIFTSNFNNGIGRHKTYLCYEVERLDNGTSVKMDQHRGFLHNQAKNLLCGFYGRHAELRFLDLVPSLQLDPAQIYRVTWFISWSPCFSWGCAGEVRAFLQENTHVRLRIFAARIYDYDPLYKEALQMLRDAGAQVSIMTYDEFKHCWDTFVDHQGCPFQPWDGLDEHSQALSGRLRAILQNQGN

[8] = loss of viability in HepG2 cells – cell-based, CellTiter-Glo, cherry-picked, cytotoxicity control for Shn3 inhibitor project, dose response (AID 624134); type: functional
[9] = target: T2, DNA repair protein RAD52 homolog (Homo sapiens, UniProt P43351); type: functional, biochemical
T2 sequence (P43351 whole entry): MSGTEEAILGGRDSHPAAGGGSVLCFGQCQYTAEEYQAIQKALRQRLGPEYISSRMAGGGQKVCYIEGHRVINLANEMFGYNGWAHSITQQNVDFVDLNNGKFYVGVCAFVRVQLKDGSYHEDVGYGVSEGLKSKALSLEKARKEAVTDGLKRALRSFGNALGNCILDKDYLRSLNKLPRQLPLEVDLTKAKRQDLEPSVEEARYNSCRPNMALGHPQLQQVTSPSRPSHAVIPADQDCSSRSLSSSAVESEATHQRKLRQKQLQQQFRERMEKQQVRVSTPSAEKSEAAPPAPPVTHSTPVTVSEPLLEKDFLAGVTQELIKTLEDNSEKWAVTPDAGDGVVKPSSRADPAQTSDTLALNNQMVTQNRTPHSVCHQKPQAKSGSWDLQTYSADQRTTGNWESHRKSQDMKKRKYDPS

[10] = system: BJ; assay: BJ-TERT fibroblast viability loss – cell-based, RAS-independent, luminescence, dose response (AID 1933); type: functional; conditions: Homo sapiens
[11] = non-specific 3'UTR reporter inhibition in Clone20-Shn3RL – cell-based, Renilla luciferase, cherry-picked, counter-screen for Shn3 inhibitor project, dose response (AID 624133); type: functional
[12] = DRD fibroblast viability loss – cell-based, non-viral oncogenic, luminescence, dose response (AID 1934); type: functional; conditions: Homo sapiens
[13] = target: T3, Short transient receptor potential channel 4 (Mus musculus, UniProt Q9QUQ5); assay: block of DAMGO-driven TRPC4 calcium entry – cell-based, HEK293 TRPC4/mu-opioid, Fluo-4 calcium, dose response (AID 434942); type: functional;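 further: potency of inhibitors blocking the TRPC4 calcium response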
T3 sequence (Q9QUQ5 whole entry): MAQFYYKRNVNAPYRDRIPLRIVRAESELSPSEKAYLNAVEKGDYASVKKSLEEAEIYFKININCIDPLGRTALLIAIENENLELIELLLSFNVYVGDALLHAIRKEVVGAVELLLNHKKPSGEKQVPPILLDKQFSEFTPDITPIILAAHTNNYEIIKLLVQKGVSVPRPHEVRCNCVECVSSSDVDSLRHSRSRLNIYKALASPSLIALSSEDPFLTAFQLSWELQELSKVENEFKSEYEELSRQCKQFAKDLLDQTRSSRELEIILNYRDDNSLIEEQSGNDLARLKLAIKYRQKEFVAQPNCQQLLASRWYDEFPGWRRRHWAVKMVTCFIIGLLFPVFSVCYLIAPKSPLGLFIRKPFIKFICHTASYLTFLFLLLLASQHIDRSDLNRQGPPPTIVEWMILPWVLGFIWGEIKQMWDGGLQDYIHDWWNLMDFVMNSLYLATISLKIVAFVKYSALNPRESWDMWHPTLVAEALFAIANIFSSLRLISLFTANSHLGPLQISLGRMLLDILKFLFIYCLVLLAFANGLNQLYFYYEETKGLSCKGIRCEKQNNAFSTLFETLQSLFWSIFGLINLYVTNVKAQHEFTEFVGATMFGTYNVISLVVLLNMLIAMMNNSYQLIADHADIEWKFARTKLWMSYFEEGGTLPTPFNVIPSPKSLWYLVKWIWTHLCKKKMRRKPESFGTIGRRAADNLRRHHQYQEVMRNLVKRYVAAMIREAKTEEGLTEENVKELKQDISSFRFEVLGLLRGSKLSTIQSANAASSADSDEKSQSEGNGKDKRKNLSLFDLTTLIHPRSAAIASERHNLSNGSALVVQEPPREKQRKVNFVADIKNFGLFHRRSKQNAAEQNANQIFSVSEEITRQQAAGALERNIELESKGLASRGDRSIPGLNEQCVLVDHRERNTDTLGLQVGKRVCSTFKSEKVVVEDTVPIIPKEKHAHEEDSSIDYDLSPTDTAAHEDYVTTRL

[14] = system: BJ; assay: growth inhibition of engineered Ras-driven BJ cells – cell-based, alamar blue fluorescence, cherrypicked samples, dose response (AID 2631); type: functional; conditions: Homo sapiens;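 further: confirmatory dose-response assay in RAS-dependent BJ fibroblasts engineered with TERT, LT and ST, with cytotoxicity read by fluorescence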
[15] = bead-based luminescence quenchers, dual-tagged ARNT – biochemical, AlphaScreen, cherry-pick, artefact control for ARNT-TACC3 interaction inhibitor project, dose response (AID 651705); type: functional;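 further: AlphaScreen bead proximity signal that flags compounds interfering with the detection technology; potency reflects signal decrease which marks the compound as an assay artifact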
[16] = target: T4, Probable nicotinate-nucleotide adenylyltransferase (Staphylococcus aureus (strain N315), UniProt P65502); type: functional, Staphylococcus aureus subsp. aureus N315;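 on IC50 Mean: confirmatory dose-response retesting of NadD inhibitor hits first found in an ultra-high-throughput screen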
T4 sequence (P65502 whole entry): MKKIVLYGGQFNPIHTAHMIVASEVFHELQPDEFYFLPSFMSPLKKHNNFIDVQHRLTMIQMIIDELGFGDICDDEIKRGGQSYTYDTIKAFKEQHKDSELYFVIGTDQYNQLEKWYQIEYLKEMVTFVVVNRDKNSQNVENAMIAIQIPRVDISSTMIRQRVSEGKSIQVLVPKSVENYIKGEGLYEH

[17] = target: T4, Probable nicotinate-nucleotide adenylyltransferase; type: functional, Staphylococcus aureus subsp. aureus N315; conditions: read-out: IC50_Mean
[18] = target: T5, Small ubiquitin-related modifier 1 (Homo sapiens, UniProt P63165); assay: SUMO1 protein interaction blockers, potency – biochemical, fluorescence polarization, uHTS hits, dose response (AID 624382); type: functional; conditions: read-out: IC50_Mean
T5 sequence (P63165 whole entry): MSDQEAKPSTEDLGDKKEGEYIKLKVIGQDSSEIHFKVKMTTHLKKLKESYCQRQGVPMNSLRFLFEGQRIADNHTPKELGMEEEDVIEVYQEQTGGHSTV

[19] = target: T5, Small ubiquitin-related modifier 1; assay: SUMO1 protein-protein binding blockers, potency – biochemical, FRET, dose response (AID 624383); type: functional; conditions: read-out: IC50_Mean
[20] = target: T6, Long-chain-fatty-acid--AMP ligase FadD28 (Mycobacterium tuberculosis, UniProt P9WQ59); assay: Fluorescence polarization aasay to screen for inhibitors that compete for the binding of FadD28 to a bisubstrate Measured in Biochemical System Using Plate Reader - 2147-01_Inhibitor_Dose_CherryPick_Activity.; type: functional, Mycobacterium tuberculosis H37Rv
T6 sequence (P9WQ59 whole entry): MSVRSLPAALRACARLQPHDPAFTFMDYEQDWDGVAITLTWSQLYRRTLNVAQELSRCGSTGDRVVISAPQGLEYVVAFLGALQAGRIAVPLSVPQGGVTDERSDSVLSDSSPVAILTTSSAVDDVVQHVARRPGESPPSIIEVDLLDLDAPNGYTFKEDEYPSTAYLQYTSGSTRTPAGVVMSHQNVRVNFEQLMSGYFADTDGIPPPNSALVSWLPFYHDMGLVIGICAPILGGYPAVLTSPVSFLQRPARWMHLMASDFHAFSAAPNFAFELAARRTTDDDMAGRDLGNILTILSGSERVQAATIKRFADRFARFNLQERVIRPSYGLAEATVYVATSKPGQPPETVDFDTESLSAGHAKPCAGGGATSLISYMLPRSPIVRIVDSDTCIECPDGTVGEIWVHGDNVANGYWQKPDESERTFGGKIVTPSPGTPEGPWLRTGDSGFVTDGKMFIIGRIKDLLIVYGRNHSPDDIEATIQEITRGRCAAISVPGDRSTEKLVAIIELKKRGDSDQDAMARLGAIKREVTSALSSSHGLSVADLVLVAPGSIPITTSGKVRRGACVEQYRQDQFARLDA

In the case of `CN(C)CCCNc1c2ccccc2nc2ccccc12`, the EC50 [1] was 3.21 µM (active), the AC50 [2] was 0.814 µM (active) and the AC50 [3] was 3.22 µM (active). The IC50 [4] was 58 µM (active), the AC50 [5] was 0.533 µM (active) and the EC50 [6] was 5.56 µM (active). For the same compound, the IC50 [7] was 18 µM (active), the AC50 [8] was 7.82 µM (active) and the AC50 [9] was 0.271 µM (active). The EC50 [10] was 1.92 µM (active), the AC50 [11] was > 70 µM (inactive) and the EC50 [12] was 4.72 µM (active). For the same compound, the EC50 [13] was 1.33 µM (active) and the EC50 [14] was 0.454 µM (inconclusive).

In the case of `COC(=O)c1ccc(CSc2ccc3nnc(-c4ccccn4)n3n2)o1`, the AC50 [15] was 98.1 µM (active).

With `O=C(NCc1ccco1)c1cccc2c1C(=O)c1ccc(/C=C/c3ccccc3)cc1S2(=O)=O` the IC50 [16] was 11.5 µM (active) and the IC50 [17] was 29.3 µM (active).

In the case of `COc1cc(CNCc2ccccn2)ccc1OCC(=O)NC(C)(C)C`, the AC50 [15] was 90.6 µM (active).

For `COc1cccc2sc(Nc3nc(-c4cc5ccccc5oc4=O)cs3)nc12`, the IC50 [18] was > 66.6 µM (inactive) and the IC50 [19] was 2.42 µM (active).

In the case of `CCN(CC)S(=O)(=O)c1cccc(C(=O)OCC(=O)c2ccc3c(c2)OCCO3)c1`, the AC50 [20] was > 100 µM (inactive).

Reference: ChEMBL document CHEMBL1201862, “PubChem BioAssay data set” (2004)
